Measured values: patent US20110207697A1, “XANTHOHUMOL COMPOSITIONS AND METHODS FOR TREATING SKIN DISEASES OR DISORDERS” (Betal, LLC, priority 2008, published 2011)
≈ marks a conversion by molar mass, not a printed value. Like-named read-outs stand apart in the source and are kept apart here.

Columns and labels:
[1] = system: P. acnes (ATCC 6919); experiment: Antimicrobial susceptibility, broth dilution (MIC/MBC); type: cell-based, Propionibacterium acnes
Description: (§1) The antibacterial effects of seven hops components against five different strains of bacteria involved in primary or secondary skin and soft tissue infections was evaluated, with broth dilution methods. […] Antimicrobial susceptibility testing was performed using a broth dilution method. Gentamicin or ampicillin was used as a control to verify the methodology. A stock solution (20 mg/ml) of the test substance (or vehicle control) was prepared in dimethyl sulfoxide. Serial dilution was done in microwell plates. Reinforced Clostridial Medium was used for P. acnes (ATCC 6919). Three hundreds […] of the test substance was added to the test tube containing P. acnes (10^5 CFU/ml) in 2.7 ml of cultures grown under anaerobic conditions. Mueller-Hinston Broth suitable for culturing S. epidermidis (ATCC 12228), K. rhizophila (formerly M. luteus) (ATCC 9341), and S. aureus (ATCC […]), and Brain Heart Infusion Broth suitable for culturing S. pyogenes (ATCC 14289) were used. A total of […] of the test substance was added to the test tube containing the other microorganisms (10^5CFU/ml) in 0.9 ml of cultures grown under controlled conditions. […] Samples from those tubes that scored positive was plated onto an agar plate and incubated under controlled conditions.

[2] = system: K. rhizophila (formerly M. luteus) (ATCC 9341); experiment: as above; type: cell-based, Kocuria rhizophila
Description: as §1

[3] = Lipophilic oxygen radical absorbance capacity (ORAC-L); conditions: lipid soluble antioxidant capacity; expressed as mmol TE/g; — = No activity detected
Source text: Thus the ORAC method has become a widely used method for assessing antioxidant capacity in biological samples and foods. However, because of its inability to measure both hydrophilic and lipophilic antioxidants, the method has its limitations. An ORAC method for lipophilic antioxidants was further developed and validated using fluorescein as the fluorescent probe (Prior et al. 2003 J. Agric. Food Chem. 51: 3273-3279). […] In the present work, the ORAC value is expressed as the sum of values of both the water-soluble and fat-soluble parts. […] Both hydrophilic and lipophilic oxygen radical absorbance capacity (ORAC) assays were carried out at Brunswick Laboratory (Wareham, Mass.) based on the modified ORACfl method reported by Ou et al. (2001 J. Agric. Food Chem. 49: 4619-4626, 2002 J. Agr. Food Chem. 50: 3122-3128). Trolox, a water-soluble vitamin E analog, was used as the calibration standard. The data are expressed as mmole of Trolox equivalents per gram (mmol TE/g). […] Hydroxyl radical ORAC (HOR-AC) is expressed as mmole caffeic acid equivalent per gram (mmol CAE/g). […] The peroxyl nitrite ORAC (NORAC) result is expressed as mmol TE/g. […] Radical-scavenging activity was measured by the change in absorbance at 517 nm with the DPPH result expressed as mmol TE/g. […] The FRAP result is expressed as mmol TE/g (Ou et al. 2002b).

[4] = SOD antioxidant assay; conditions: FIG. 2 radar chart
Description: [table] […] The SOAC scores are not included in this figure; ORAC values used are the sum of lipophilic and hydrophilic results. For each assay category, scaling was made logarithmic so that the plot on the chart resembles the associated rating. […] The larger the spatial area, the higher the overall antioxidative capacity. […] Both hydrophilic and lipophilic oxygen radical absorbance capacity (ORAC) assays were carried out at Brunswick Laboratory (Wareham, Mass.) based on the modified ORACfl method reported by Ou et al. (2001 J. Agric. Food Chem. 49: 4619-4626, 2002 J. Agr. Food Chem. 50: 3122-3128). Trolox, a water-soluble vitamin E analog, was used as the calibration standard. The data are expressed as mmole of Trolox equivalents per gram (mmol TE/g). The acceptable precision of the ORAC assay is a 15% relative standard deviation. […] Hydroxyl radical ORAC (HOR-AC) is expressed as mmole caffeic acid equivalent per gram (mmol CAE/g). […] The peroxyl nitrite ORAC (NORAC) result is expressed as mmol TE/g. Alpha-tocopherol (vitamin E) was used as the calibration standard, and the singlet oxygen absorbance capacity (SOAC) result is expressed as mmole a-tocopherol equivalent (mmol VtE) per gram (Aubry et al. 1989). […] Radical-scavenging activity was measured by the change in absorbance at 517 nm with the DPPH result expressed as mmol TE/g. […] The FRAP result is expressed as mmol TE/g (Ou et al. 2002b). […]

MIC ([1]; minimal 100% inhibitory concentration, 2 days): 3 µg/mL (≈ 8.46 µM)
MIC ([2]; 1 day): 1 µg/mL (≈ 2.82 µM)
MIC ([2]; Kocuria rhizophila, ATCC9341): 1000 µg/mL (≈ 2820 µM)
SMILES: COc1cc(O)c(CC=C(C)C)c(O)c1C(=O)/C=C/c1ccc(O)cc1 [Xanthohumol (7), 3′-[3,3-dimethylallyl]-2′,4′,4-trihydroxy-6′-methoxychalcone]
MBC ([1]; Cutibacterium acnes, ATCC6919, read-out: MBC): 3000 µg/mL (≈ 8460 µM)
MBC ([1]; lowest concentration required to kill): [3] g/mL
MBC [2]: [10] g/mL
ORAC-L (Trolox equivalent) [3]: 2.1 Trolox equivalent
quenching activity against superoxide (SOD), rank among hop components [4]: highest quenching activity
